# Results reported in the Deep4Chem optical property database.
# Test: solvent given as SMILES
compound,measurement,setting,value
COc1ccc(-n2nc(C#N)c(N3CCCC3)n2)cc1,emission maximum,in CC#N,418 nm
same,emission maximum,in CCCCCC,389 nm
same,emission maximum,in CCO,415 nm
same,emission maximum,in CN(C)C=O,418 nm
same,emission maximum,in CO,416 nm
same,emission maximum,in ClC(Cl)Cl,406 nm
CS1(C)C(/C=C/C2=C(c3ccc(C(=O)O)cc3)C(=C/C=C3/N(CCCCS(=O)(=O)[O-])c4ccccc4S3(C)C)/CCC2)=[N+](CCCCS(=O)(=O)[O-])c2ccccc21,emission maximum,in CO,813 nm
CCc1ccc(/C=C/c2ccc(-c3nnc(-c4ccc(-c5cc6ccccc6s5)cc4)o3)cc2)cc1,emission maximum,in CC#N,421 nm
same,emission maximum,in CC(C)=O,420 nm
same,emission maximum,in CCCCCCCC,389 nm
same,emission maximum,in CCCCCCCCCCO,420 nm
same,emission maximum,in CCCCCCCCO,421 nm
same,emission maximum,in CCCCCO,421 nm
same,emission maximum,in CCCO,422 nm
same,emission maximum,in CN(C)C=O,429 nm
same,emission maximum,in CO,426 nm
same,emission maximum,in CS(C)=O,433 nm
N#C/C(=C\c1ccccc1)c1nc2ccccc2s1,emission maximum,in C1CCCCC1,430 nm
CCCCC1(CCCC)c2cc(C#Cc3ccc4ccc5cccc6ccc3c4c56)ccc2-c2ccc(N(c3ccccc3)c3ccccc3)cc21,emission maximum,in C1CCCCC1,436 nm
same,emission maximum,in C1CCOC1,498 nm
same,emission maximum,in CC#N,557 nm
same,emission maximum,in CCOC(C)=O,490 nm
same,emission maximum,in CN(C)C=O,565 nm
same,emission maximum,in Cc1ccccc1,449 nm
same,emission maximum,in ClC(Cl)Cl,486 nm
same,emission maximum,in ClCCl,516 nm
CC(C)c1cccc(C(C)C)c1-n1c(=O)c2cc3nc(-c4ccccc4)c4cc5c(=O)n(-c6c(C(C)C)cccc6C(C)C)c(=O)c6cc7nc(-c8ccccc8)c8cc(c1=O)c2c1c3c4c(c65)c7c81,emission maximum,in ClC(Cl)Cl,502 nm
C[Si]1(C)c2ccc(C#Cc3ccccc3)cc2C=Cc2cc(C#Cc3ccccc3)ccc21,emission maximum,in ClCCl,375 nm
CC(C)(C)NC(=O)c1ccc(-c2cc3ccccc3o2)c2ccc3c4ccccc4c4ccccc4c3c12,emission maximum,in ClCCl,441 nm
CCCCCCCCCCCCCCCCOC(=O)c1ccc(N(c2ccccc2)c2ccccc2)cc1,emission maximum,in C1CCCCC1,380 nm
same,emission maximum,in C1CCOC1,428 nm
same,emission maximum,in CC#N,480 nm
same,emission maximum,in CCOC(C)=O,428 nm
same,emission maximum,in ClCCCl,450 nm
same,emission maximum,in c1ccccc1,412 nm
C(#Cc1nc(C#Cc2cccs2)c(C#Cc2cccs2)c(C#Cc2cccs2)c1C#Cc1cccs1)c1cccs1,emission maximum,in ClCCl,441 nm
Clc1nc(Nc2ccccc2)nc(Nc2ccc3cc4ccccc4cc3c2)n1,emission maximum,in C1COCCO1,436 nm
same,emission maximum,in CC#N,432 nm
same,emission maximum,in CCCCOCCCC,430 nm
same,emission maximum,in CCOC(C)=O,433 nm
O=C(c1ccccc1)c1ccc(-n2c3ccccc3c3c2c2ccccc2n3-c2ccccc2)cc1,emission maximum,in Cc1ccccc1,520 nm
FC(F)(F)c1ccc2oc3nc4oc5ccc(N(c6ccccc6)c6ccccc6)cc5c4cc3c2c1,emission maximum,in ClC(Cl)Cl,487 nm
CCCCN1/C(=C/C=C/C2=[N+](C)c3ccccc3C2(C)C)C(C)(C)c2c1ccc1ccccc21,emission maximum,in CS(C)=O,586 nm
CC1(C)CC(=O)c2cc(F)cc(F)c2N1,emission maximum,in CC#N,455 nm
same,emission maximum,in CCO,492 nm
COc1ccc(-c2c3nc(cc4ccc([nH]4)c(-c4ccc(OC)c(OCCCC(=O)O)c4)c4nc(cc5ccc2[nH]5)C=C4)C=C3)cc1OCCCC(=O)O,emission maximum,in CS(C)=O,639 nm
c1ccc2cc3cnccc3cc2c1,emission maximum,in CCO,426.44 nm
CN(C)c1ccc(C2=Cc3cccc[n+]3[B-](F)(F)O2)cc1,emission maximum,in C1CCOC1,499 nm
same,emission maximum,in C1COCCO1,486 nm
same,emission maximum,in CC1CCCCC1,447 nm
same,emission maximum,in CC#N,528 nm
same,emission maximum,in CCOC(C)=O,499 nm
same,emission maximum,in CCOCC,477 nm
same,emission maximum,in CN(C)C=O,530 nm
same,emission maximum,in CO,517 nm
same,emission maximum,in COC(C)=O,514 nm
same,emission maximum,in ClC(Cl)Cl,490 nm
CC(C)(C)c1ccc2oc3nc4oc5ccc(N6c7ccccc7Oc7ccccc76)cc5c4cc3c2c1,emission maximum,in ClC(Cl)Cl,491 nm
CC(C)(C)c1ccc(-c2c(-c3ccc(-n4c5ccccc5c5ccccc54)cc3)c(C#N)c(-c3ccc(-n4c5ccccc5c5ccccc54)cc3)c(-c3ccc(C(C)(C)C)cc3)c2-c2ccc(C(C)(C)C)cc2)cc1,emission maximum,in C1CCOC1,406 nm
COCCC1=Cc2nc1ccc1[nH]c(cc1CCOC)c1nc(c(O)cc3[nH]c2cc3CCOC)C(CCOC)=C1,emission maximum,in Cc1ccccc1,688 nm
CC(C)(C)C1CCC(=CS/C=C/c2ccc(-c3ccc(/C=C/SC=C4CCC(C(C)(C)C)CC4)cc3)cc2)CC1 (centres undefined),emission maximum,in ClCCl,432 nm
O=C1CCCC2=C1C(c1cccc(Cl)c1)c1c(c3ccccc3oc1=O)N2 (centres undefined),emission maximum,in CS(C)=O,443 nm
Cc1cc(-n2c3ccccc3c3cc4c(cc32)C2c3ccccc3C4c3ccccc32)ccc1-c1nc(-c2ccccc2)nc(-c2ccccc2)n1,emission maximum,in Cc1ccccc1,429 nm
same,emission maximum,in O=P(c1ccccc1)(c1ccccc1)c1ccccc1Oc1ccccc1P(=O)(c1ccccc1)c1ccccc1,444 nm
Fc1ccc(C#Cc2nc(C#Cc3ccc(F)cc3)c(C#Cc3ccc(F)cc3)c(C#Cc3ccc(F)cc3)c2C#Cc2ccc(F)cc2)cc1,emission maximum,in ClCCl,436 nm
CCNc1cc2oc(=O)c3c(=O)oc4ccccc4c3c2cc1C,emission maximum,in CS(C)=O,552 nm
same,emission maximum,in ClCCl,509 nm
Cc1ccc(-c2sc(/C(C#N)=C/c3ccc(C#N)cc3)nc2-c2ccc(Cl)cc2)cc1,emission maximum,in CC#N,535 nm
CCC1=C(C)C2=Cc3cc(I)c(I)n3[B-](F)(F)[N+]2=C1C,emission maximum,in C1CCCCC1,550.5 nm
same,emission maximum,in CC(C)=O,552.5 nm
same,emission maximum,in CCO,555 nm
same,emission maximum,in CCOC(C)=O,551.5 nm
same,emission maximum,in CO,552 nm
same,emission maximum,in OCC(F)(F)F,548 nm
C[Si]1(C)c2cc(-c3ccc(-c4cccs4)s3)ccc2C=Cc2ccc(-c3ccc(-c4cccs4)s3)cc21,emission maximum,in ClCCl,463 nm
N#Cc1cnc(-c2c3ccccc3c(-c3ccccc3)c3ccccc23)nc1,emission maximum,in CCO,520 nm
same,emission maximum,in ClCCl,504 nm
N#Cc1cc(-n2c3ccccc3c3ccccc32)c(-n2c3ccccc3c3ccccc32)cc1-c1cc(-n2c3ccccc3c3ccccc32)c(-n2c3ccccc3c3ccccc32)cc1C#N,emission maximum,in Cc1ccccc1,458 nm
COc1cccc(C2=C3C=C(/C=C/C(=O)OC(C)(C)C)C=[N+]3[B-](F)(F)n3cccc32)c1,emission maximum,in ClCCl,581 nm
CN1/C(=C/C=C(/C=C/c2sc3ccccc3[n+]2C)c2ccc(C(F)(F)F)cc2)Sc2ccccc21,emission maximum,in CCO,678 nm
same,emission maximum,in CO,676 nm
same,emission maximum,in CS(C)=O,668 nm
same,emission maximum,in O,659 nm
O=C1c2cccc3c(NCc4ccccn4)c4ccccc4c(c23)C(=O)N1Cc1ccccn1,emission maximum,in C1CCOC1,609 nm
same,emission maximum,in CCCCCC,594 nm
same,emission maximum,in CCO,615 nm
same,emission maximum,in Cc1ccccc1,606 nm
same,emission maximum,in ClCCl,611 nm
CSc1ccc2c(c1)N(CCCN(C)C)c1ccccc1S2,emission maximum,in CC#N,460 nm
same,emission maximum,in CO,455 nm
same,emission maximum,in O,475 nm
Oc1ccccc1C1=NC2c3cccc4cccc(c34)C2N1c1ccccc1 (centres undefined),emission maximum,in Cc1ccccc1,575 nm
c1cc2c3cc1c1ccc4c(c1)c1cc(ccc1[C@]15OCCO[C@]41OCCO5)c1ccc4c(c1)c1cc(ccc1[C@]15OCCO[C@]41OCCO5)c1ccc(c3c1)[C@]13OCCO[C@]21OCCO3,emission maximum,in Cc1ccccc1,343 nm
CCn1c2ccccc2c2cc(C#Cc3cc(C#Cc4ccc5c(c4)c4ccccc4n5CC)nc(N4CCCCC4)n3)ccc21,emission maximum,in C1CCOC1,445 nm
same,emission maximum,in CCOC(C)=O,446 nm
same,emission maximum,in CN(C)C=O,469 nm
same,emission maximum,in Cc1ccccc1,438 nm
same,emission maximum,in ClCCl,450 nm
CC[NH+](CC)c1ccc(-c2nc3c(nc2-c2ccc(B(c4c(C)cc(C)cc4C)c4c(C)cc(C)cc4C)cc2)c2ccccc2n3C)cc1,emission maximum,in C1CCOC1,428.33 nm
O=P(c1ccccc1)(c1ccccc1)n1c2ccccc2c2cc(-n3c4ccccc4c4cc(-n5c6ccccc6c6ccccc65)ccc43)ccc21,emission maximum,in C1CCOC1,373 nm
same,emission maximum,in CC(C)=O,374 nm
same,emission maximum,in Cc1ccccc1,373 nm
same,emission maximum,in ClCCl,381 nm
O=C(O)c1ccc2ccc3cccc4ccc1c2c34,emission maximum,in C1CCOC1,387 nm
same,emission maximum,in CC#N,389 nm
same,emission maximum,in CCCCCC,387 nm
same,emission maximum,in CCO,380 nm
same,emission maximum,in CN(C)C=O,388 nm
same,emission maximum,in CO,380 nm
same,emission maximum,in Cc1ccccc1,392 nm
same,emission maximum,in ClCCl,394 nm
CC1(C)c2ccccc2N(c2ccc(-c3ncccn3)cc2)c2ccccc21,emission maximum,in Cc1ccccc1,448 nm
same,emission maximum,in O=P(c1ccccc1)(c1ccccc1)c1ccc2oc3ccc(P(=O)(c4ccccc4)c4ccccc4)cc3c2c1,457 nm
CC1(C)Oc2c(c3nc4ccccc4nc3c3ccccc23)CC1Br (centres undefined),emission maximum,in C1CCCCC1,431.03 nm
same,emission maximum,in C1CCOC1,448.83 nm
same,emission maximum,in C1COCCO1,449.44 nm
same,emission maximum,in CC#N,457.04 nm
same,emission maximum,in CC(C)O,464.25 nm
same,emission maximum,in CCCCCC,430.66 nm
same,emission maximum,in CN(C)C=O,458.3 nm
same,emission maximum,in CO,475.96 nm
same,emission maximum,in c1ccccc1,444.25 nm
O=C1c2ccccc2C2=Cc3cccc[n+]3[B-](F)(F)N12,emission maximum,in CCO,449 nm
same,emission maximum,in Cc1ccccc1,459 nm
same,emission maximum,in ClCCl,454 nm
Cc1cc(C)c(B(c2c(C)cc(C)cc2C)c2ccc3ccc4cccc5ccc2c3c45)c(C)c1,emission maximum,in Cc1ccccc1,423 nm
Cc1cc(O)c(C(=O)/C=C/c2ccccc2Cl)c(=O)o1,emission maximum,in CC#N,481 nm
same,emission maximum,in ClCCl,469 nm
C/C(=C\c1ccc(C)cc1)c1nc2ccccc2s1,emission maximum,in C1CCCCC1,390 nm
same,emission maximum,in CO,400 nm
CN(C)c1ccc(/C=C/c2ccncn2)cc1,emission maximum,in ClCCl,488 nm
O=C1c2ccc3c4ccc5c6c(ccc(c7ccc(c2c37)C(=O)N1c1ccncc1)c64)C(=O)N(c1ccncc1)C5=O,emission maximum,in C1CCOC1,570 nm
same,emission maximum,in C1COCCO1,572 nm
same,emission maximum,in CC(C)=O,570 nm
same,emission maximum,in CC(C)O,572 nm
same,emission maximum,in CCCCO,570 nm
same,emission maximum,in CCO,569 nm
same,emission maximum,in CCOC(C)=O,567 nm
same,emission maximum,in CN(C)C=O,574 nm
same,emission maximum,in CO,569 nm
same,emission maximum,in CS(C)=O,580 nm
same,emission maximum,in ClC(Cl)(Cl)Cl,573 nm
same,emission maximum,in ClC(Cl)Cl,576 nm
F[B-]1(F)Oc2ccccc2-c2nc(-c3ccccc3)c3cc(Cl)ccc3[n+]21,emission maximum,in Cc1ccccc1,542 nm
